Test results published in US11052060B2, “Compounds and methods for treating autoimmunity” (ImmunoMolecular Therapeutics, INC., priority 2018, dated 2021).

Key:
[1] = target: α-gliadin/DQ8 (Homo sapiens, UniProt P01909+P01920); experiment: Inhibition of DQ8 antigen presentation to gliadin-responsive CD4 TCR transductant (489), secreted IL-2 by ELISA; format: cell-based; details: for IC50 / 489 IC50 (α-gliadin/DQ8): 489 TCR transductant, HLA-DQ8 antigen presenting cells with α-gliadin peptide, secreted IL-2; for inhibition of gliadin-responsive CD4 TCR: FIG. 3B / FIG. 4B, secreted IL-2 by ELISA, result in words
Description: (§1) Inhibition of DQ8 antigen presentation by compounds of this disclosure was tested and compared in vitro. HLA-DQ8 antigen presenting cells were cultured with a fixed concentration of peptide and a concentration of one of the tested compounds for 4 hours. TCR transductants were then added to each culture condition and cultured overnight. Secreted IL-2 from the TCR transductant was measured by ELISA for each condition.
(§2) In these figures, 0 represents the TCR transductant response to peptide without the addition of the test compound.

[2] = target: insulin/DQ8 (Homo sapiens, UniProt P01909+P01920); experiment: Inhibition of DQ8 antigen presentation to insulin-responsive CD4 TCR transductant (Clone 5), secreted IL-2 by ELISA; format: cell-based; details: for IC50 / Clone 5 IC50 (insulin/DQ8): Clone 5 TCR transductant, HLA-DQ8 antigen presenting cells with insulin peptide, secreted IL-2; for inhibition of an insulin-responsive CD4 T cell receptor (TCR) transductant: FIG. 3A / FIG. 4A, secreted IL-2 by ELISA, result in words
Description: as §1, §2

Sequence of insulin/DQ8 (P01920 33-261 limits assumed, other chains not shown): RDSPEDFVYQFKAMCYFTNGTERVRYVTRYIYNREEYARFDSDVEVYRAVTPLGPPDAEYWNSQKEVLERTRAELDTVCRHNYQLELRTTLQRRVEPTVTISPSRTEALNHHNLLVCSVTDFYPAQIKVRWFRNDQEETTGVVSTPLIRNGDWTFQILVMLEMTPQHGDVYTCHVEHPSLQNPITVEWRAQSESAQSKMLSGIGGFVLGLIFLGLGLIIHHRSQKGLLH
Sequence of α-gliadin/DQ8 (P01920 33-261 limits assumed, other chains not shown): as above

Row | SMILES | IC50 [1] [µM] | inhibition of gliadin-responsive CD4 TCR [1] | IC50 [2] [µM] | inhibition of an insulin-responsive CD4 T cell receptor (TCR) transductant [2] | 489 IC50 (α-gliadin/DQ8) [1] | Clone 5 IC50 (insulin/DQ8) [2]
1 | C[C@@](N)(Cc1ccc(O)c(O)c1)C(=O)O (stereo in doubt) [α-methyldopa, 2-amino-3-(3,4-dihydroxyphenyl)-2-methylpropanoic acid] | 17.7 | concentration-dependent inhibition | 3.4 | concentration-dependent inhibition |  | 
2 | CC(N)[C@H](O)c1ccc(O)c(O)c1 (stereo in doubt) [α-methylnorepinephrine, 4-(2-amino-1-hydroxypropyl)benzene-1,2-diol] |  |  |  |  | No inhibition | No inhibition
3 | CC(C)(C)C(N)(Cc1ccc(O)c(O)c1)C(=O)O.Cl (centres unmarked) [Compound F994-0666] |  | concentration-dependent inhibition |  | concentration-dependent inhibition |  | 
4 | CCOC(=O)C(C)(N)Cc1ccc(O)c(O)c1 (stereo not drawn) [α-methyldopa ethyl ester, Ethyl-2-amino-3-(3,4 dihydroxyphenyl)-2-methylpropanoate] | 7.8 |  | 5.8 |  |  | 
5 | CC(N)(Cc1ccccc1)C(=O)O (stereo not drawn) [α-methylphenylalanine, 2-amino-2-methyl-3-phenylpropanoic acid] |  |  |  |  | No inhibition | No inhibition
6 | CC(N)(Cc1ccc(O)cc1)C(=O)O (stereo not drawn) [α-methyltyrosine, 2-amino-3-(4-hydroxyphenyl)-2-methylpropanoic acid] |  |  |  |  | No inhibition | No inhibition
